Consider 3 compounds from ChEMBL document CHEMBL3352679, “Structure and evaluation of antibacterial and antitubercular properties of new basic and heterocyclic 3-formylrifamycin SV derivatives obtained via 'click chemistry' approach” (Eur J Med Chem, 2014).

Series [1] deals with Staphylococcus aureus. Put plainly: Antibacterial activity against Staphylococcus aureus ATCC 4163 after 18 hrs by serial microdilution method. It counts as functional. The following applies: ATCC 4163, 18 h. Background: Broth dilution looks for growth in wells or tubes with falling amounts of substance.
Series [2] relates to Staphylococcus aureus. Briefly: Antibacterial activity against Staphylococcus aureus ATCC 25923 after 18 hrs by serial microdilution method. The following applies: ATCC 25923, 18 h. The class given is functional.
The test system of series [3] is Staphylococcus aureus. Briefly: Antibacterial activity against Staphylococcus aureus ATCC 6538 after 18 hrs by serial microdilution method. The class given is functional. The following applies: ATCC 6538, 18 h.
The test system of series [4] is Staphylococcus epidermidis. Put plainly: Antibacterial activity against Staphylococcus epidermidis ATCC 12228 after 18 hrs by serial microdilution method. The class given is functional. The following applies: ATCC 12228, 18 h.
Series [5] has as its system Staphylococcus epidermidis. Put plainly: Antibacterial activity against Staphylococcus epidermidis ATCC 49134 after 18 hrs by serial microdilution method. It counts as functional. The following applies: ATCC 49134, 18 h.
The subject of the next series is Escherichia coli. Put plainly: Antibacterial activity against Escherichia coli ATCC 10538 after 18 hrs by serial microdilution method. The class given is functional. The following applies: ATCC 10538, 18 h.
In the next series the test system is Enterococcus faecalis. Briefly: Antibacterial activity against Enterococcus faecalis ATCC 19433 after 18 hrs by serial microdilution method. The class given is functional. The following applies: ATCC 19433, 18 h.
Series [6] relates to Salmonella enterica subsp. enterica serovar Abony. Briefly: Antibacterial activity against Salmonella abony NCTC 6017 after 18 hrs by serial microdilution method. The following applies: NCTC 6017, 18 h. It counts as functional.
A further series concerns Trichophyton rubrum. Briefly: Antifungal activity against Trichophyton rubrum ATCC 28188 after 18 hrs by serial microdilution method. The following applies: ATCC 28188, 18 h. It counts as functional.
The test system of the next series is Candida albicans. Briefly: Antifungal activity against Candida albicans ATCC 10231 after 18 hrs by serial microdilution method. The class given is functional. The following applies: ATCC 10231, 18 h.
Series [7] concerns Mycobacterium tuberculosis. Put plainly: Antituberculosis activity against Mycobacterium tuberculosis H37Rv after 7 days by serial two fold dilution method. The following applies: 168 h. It counts as functional.
Series [8] in a line: Solubility in water at pH 7 and 25 degC by UV-vis spectrophotometry. The class given is physicochemical.
Series [9] is described as follows: Octanol-water partition coefficient, log P of the compound. It counts as physicochemical.

Values after ≈ are worked out from the molar mass of the structure shown.

Turning to `CCCCCc1cn(CCCN2Cc3c4c(O)c5c(O)c(C)c6c(c5c3O)C(=O)[C@@](C)(O/C=C/[C@H](OC)[C@@H](C)[C@@H](OC(C)=O)[C@H](C)[C@H](O)[C@H](C)[C@@H](O)[C@@H](C)/C=C/C=C(/C)C2=N4)O6)nn1`, the minimal inhibitory concentration (MIC) in the series with Staphylococcus aureus [1] was 1 µg/mL (≈ 1.13 µM); against Staphylococcus aureus [2], above 1 µg/mL; against Staphylococcus aureus [3], above 1 µg/mL; in series [4], above 1 µg/mL; in series [5] it was above 1 µg/mL; in the series with Escherichia coli, above 1 µg/mL. The MIC with Enterococcus faecalis is above 1 µg/mL; in series [6], above 1 µg/mL; in the series with Trichophyton rubrum, above 1 µg/mL; in the series on Candida albicans it was above 1 µg/mL; in series [7], 1 µg/mL (≈ 1.13 µM). Also, in series [8], the solubility is below 10 µg/mL. For the same compound, the logP in [9] came out at 4.47.
Consider `CO[C@H]1/C=C/O[C@@]2(C)Oc3c(C)c(O)c4c(O)c(c(CNCCN5CCCC5)c(O)c4c3C2=O)NC(=O)/C(C)=C\C=C\[C@H](C)[C@H](O)[C@@H](C)[C@@H](O)[C@@H](C)[C@H](OC(C)=O)[C@@H]1C`, for which the MIC in the series with Staphylococcus aureus [1] came to 1 µg/mL (≈ 1.21 µM); with Staphylococcus aureus [2], 1 µg/mL (≈ 1.21 µM); with Staphylococcus aureus [3], 1 µg/mL (≈ 1.21 µM); in series [4], 0.5 µg/mL (≈ 0.607 µM); in series [5], 0.5 µg/mL (≈ 0.607 µM); with Escherichia coli, 1 µg/mL (≈ 1.21 µM). Further, the MIC in the series on Enterococcus faecalis was 1 µg/mL (≈ 1.21 µM); in series [6] it was 1 µg/mL (≈ 1.21 µM); in the series with Trichophyton rubrum, 1 µg/mL (≈ 1.21 µM); against Candida albicans it was 1 µg/mL (≈ 1.21 µM); in series [7] it was 0.5 µg/mL (≈ 0.607 µM). The compound further registered a solubility in [8] of 240 µg/mL (≈ 291 µM). The same compound displayed a logP in series [9] of 1.55.
Take `CO[C@H]1/C=C/O[C@@]2(C)Oc3c(C)c(O)c4c(O)c(c(CNCCCN5CCCC5)c(O)c4c3C2=O)NC(=O)/C(C)=C\C=C\[C@H](C)[C@H](O)[C@@H](C)[C@@H](O)[C@@H](C)[C@H](OC(C)=O)[C@@H]1C`: the MIC was 0.5 µg/mL (≈ 0.597 µM) against Staphylococcus aureus [1]; 1 µg/mL (≈ 1.19 µM) with Staphylococcus aureus [2]; 0.5 µg/mL (≈ 0.597 µM) against Staphylococcus aureus [3]; 0.5 µg/mL (≈ 0.597 µM) in series [4]; 0.25 µg/mL (≈ 0.298 µM) in [5]; above 1 µg/mL with Escherichia coli. Further, the MIC against Enterococcus faecalis was above 1 µg/mL; in series [6], above 1 µg/mL; against Trichophyton rubrum it was above 1 µg/mL; in the series with Candida albicans, above 1 µg/mL; in series [7] it was 0.5 µg/mL (≈ 0.597 µM). The compound further showed a solubility in series [8] of 240 µg/mL (≈ 286 µM). For the same compound, the logP in [9] is 2.04.

As usually defined, the MIC is the lowest concentration that inhibits growth of the organism. A high value points to weaker potency. A word on the solubility: it is how much of the substance goes into solution per volume. Usually logP stands for the decadic logarithm of the partition coefficient of the neutral form, usually between octanol and water. A low value points to lower lipophilicity.
